# Test results: patent US4394503A, “Cephalosporin derivatives” (priority 1981, dated 1983)
# Legend:
# S. marcescens A20019 = experiment: MIC against selected test organisms (Table 2); type: cell-based; settings: Serratia marcescens, A20019, read-out: Minimum Inhibitory Concentration
# S. pyrogenes = experiment: In vitro activity against species of Streptococcus, Neisseria and Haemophilus (Table 3); type: cell-based; settings: read-out: Geometric Mean of MIC
# S. pneumoniae = experiment: as above; type: cell-based; settings: read-out: Geometric Mean of MIC
# N. gonorrhoeae = experiment: as above; type: cell-based; settings: Neisseria gonorrhoeae, read-out: Geometric Mean of MIC
# N. meningitidus = experiment: as above; type: cell-based; settings: read-out: Geometric Mean of MIC
# C. difficile A21675 = experiment: MIC against selected test organisms (Table 2); type: cell-based; settings: Clostridioides difficile, A21675, read-out: Minimum Inhibitory Concentration
# P. aeruginosa A20717 = experiment: MIC against selected test organisms (Table 2); type: cell-based; settings: Pseudomonas aeruginosa, A20717, read-out: Minimum Inhibitory Concentration
# P. mirabilis A9554 = experiment: MIC against selected test organisms (Table 2); type: cell-based; settings: Proteus mirabilis, A9554, read-out: Minimum Inhibitory Concentration
# B. fragilis A22533 = experiment: MIC against selected test organisms (Table 2); type: cell-based; settings: Bacteroides fragilis, A22533, read-out: Minimum Inhibitory Concentration
# in vivo = settings: mouse, im
# Method: Blood samples were collected from the orbital sinuses into heparinized capillary tubes and assayed by the paper disc-agar diffusion method using E. coli as the test organism. The half-life values and areas under the curve were determined.
# [1] = tested on: Cephalothin-resistant E. coli and Kl. pneumoniae (Gn-Ib); experiment: In vitro antibacterial activity, two-fold agar dilution, Mueller-Hinton agar (Table 1), group Gn-Ib; type: cell-based, E. coli (3) and Kl. pneumoniae (3); settings: Escherichia coli, read-out: Geometric Mean of MIC
# S. aureus Smith = experiment: Therapeutic efficacy in experimentally infected mice (Table 5); type: in vivo; settings: Staphylococcus aureus, im, 120 h; i.m., immediately after intraperitoneal challenge, 5 days observation; read-out: PD50 (median protective dose)
# Method: (§1) The test compounds were administered intramuscularly immediately after the bacterial challenge.
# E. coli Juhl = experiment: as above; type: in vivo; settings: Escherichia coli, im, 120 h; i.m., immediately after intraperitoneal challenge, 5 days observation; read-out: PD50 (median protective dose)
# Method: as §1
# E. cloacae A9656 = experiment: as above; type: in vivo; settings: Enterobacter cloacae, A9656, im, 120 h; i.m., immediately after intraperitoneal challenge, 5 days observation; read-out: PD50 (median protective dose)
# Method: as §1
# Pr. mirabilis A9900 = experiment: as above; type: in vivo; settings: Proteus mirabilis, A9900, im, 120 h; i.m., immediately after intraperitoneal challenge, 5 days observation; read-out: PD50 (median protective dose)
# Method: as §1
# S. aureus BX-1633 = experiment: as above; type: in vivo; settings: Staphylococcus aureus, BX1633, im, 120 h; i.m., immediately after intraperitoneal challenge, 5 days observation; read-out: PD50 (median protective dose)
# Method: as §1
# P. aeruginosa A9843 = experiment: as above; type: in vivo; settings: Pseudomonas aeruginosa, A9843, im, 120 h; i.m., immediately after intraperitoneal challenge, 5 days observation; read-out: PD50 (median protective dose)
# Method: as §1
# P. acnes A21933 = experiment: MIC against selected test organisms (Table 2); type: cell-based; settings: Cutibacterium acnes, A21933, read-out: Minimum Inhibitory Concentration
# E. coli A15148 = experiment: MIC against selected test organisms (Table 2); type: cell-based; settings: Escherichia coli, A15148, read-out: Minimum Inhibitory Concentration
# B. fragilis A20928-1 = experiment: MIC against selected test organisms (Table 2); type: cell-based; settings: Bacteroides fragilis, A209281, read-out: Minimum Inhibitory Concentration
# H. influenzae(AMP-S) = experiment: In vitro activity against species of Streptococcus, Neisseria and Haemophilus (Table 3); type: cell-based; settings: Haemophilus influenzae, read-out: Geometric Mean of MIC
# B. fragilis A22693 = experiment: MIC against selected test organisms (Table 2); type: cell-based; settings: Bacteroides fragilis, A22693, read-out: Minimum Inhibitory Concentration
# P. aeruginosa A15150 = experiment: MIC against selected test organisms (Table 2); type: cell-based; settings: Pseudomonas aeruginosa, A15150, read-out: Minimum Inhibitory Concentration
# [2] = tested on: Cephalothin-sensitive E. coli, Kl. pneumoniae and Pr. mirabilis (Gn-Ia); experiment: In vitro antibacterial activity, two-fold agar dilution, Mueller-Hinton agar (Table 1), group Gn-Ia; type: cell-based; settings: read-out: Geometric Mean of MIC
# [3] = tested on: Penicillin-resistant S. aureus (Gp-Ib); experiment: In vitro antibacterial activity, two-fold agar dilution, Mueller-Hinton agar (Table 1), group Gp-Ib; type: cell-based; settings: Staphylococcus aureus, read-out: Geometric Mean of MIC
# B. fragilis A21900 = experiment: MIC against selected test organisms (Table 2); type: cell-based; settings: Bacteroides fragilis, A21900, read-out: Minimum Inhibitory Concentration
# K. pneumoniae A 9867 = experiment: MIC against selected test organisms (Table 2); type: cell-based; settings: Klebsiella pneumoniae, A9867, read-out: Minimum Inhibitory Concentration
# [4] = tested on: Pr. morganii, Ent. cloacae and Ser. marcescens (Gn-II); experiment: In vitro antibacterial activity, two-fold agar dilution, Mueller-Hinton agar (Table 1), group Gn-II; type: cell-based, Pr. morganii (1), Ent. cloacae (2) and Ser. marcescens (2); settings: read-out: Geometric Mean of MIC
# P. morganii A9553 = experiment: MIC against selected test organisms (Table 2); type: cell-based; settings: Morganella morganii, A9553, read-out: Minimum Inhibitory Concentration
compound,measurement,setting,value
"CC(C)(O/N=C(\C(=O)N[C@@H]1C(=O)N2C(C(=O)[O-])=C(C[n+]3ccccc3)CS[C@H]12)c1csc(N)n1)C(=O)O [Ceftazidime, ceftazidime, reference compound]",MIC,S. marcescens A20019,0.1 µg/mL
same,MIC,S. pyrogenes,0.4 µg/mL
same,MIC,S. pneumoniae,0.4 µg/mL
same,MIC,N. gonorrhoeae,0.1 µg/mL
same,MIC,N. meningitidus,0.1 µg/mL
same,MIC,C. difficile A21675,> 100 µg/mL
same,MIC,P. aeruginosa A20717,6.3 µg/mL
same,MIC,P. mirabilis A9554,0.05 µg/mL
same,MIC,B. fragilis A22533,> 100 µg/mL
same,AUC,in vivo; 10 mg/kg,5500 ng·h/mL
same,concentration at 10 min,in vivo; 10 mg/kg,8000 ng/mL
same,concentration at 20 min,in vivo; 10 mg/kg,7800 ng/mL
same,concentration at 0.5 h,in vivo; 10 mg/kg,5500 ng/mL
same,concentration at 40 min,in vivo; 10 mg/kg,3900 ng/mL
same,concentration at 1 h,in vivo; 10 mg/kg,1800 ng/mL
same,concentration at 1.5 h,in vivo; 10 mg/kg,400 ng/mL
same,half-life,in vivo; 10 mg/kg,16 min
same,AUC,in vivo; 20 mg/kg,10000 ng·h/mL
same,concentration at 10 min,in vivo; 20 mg/kg,18000 ng/mL
same,concentration at 20 min,in vivo; 20 mg/kg,14000 ng/mL
same,concentration at 0.5 h,in vivo; 20 mg/kg,11000 ng/mL
same,concentration at 40 min,in vivo; 20 mg/kg,7700 ng/mL
same,concentration at 1 h,in vivo; 20 mg/kg,2400 ng/mL
same,concentration at 1.5 h,in vivo; 20 mg/kg,610 ng/mL
same,half-life,in vivo; 20 mg/kg,14 min
same,MIC,[1],1.6 µg/mL
same,ED50,S. aureus Smith,10 mg/kg
same,ED50,E. coli Juhl,0.11 mg/kg
same,ED50,E. cloacae A9656,3.5 mg/kg
same,ED50,Pr. mirabilis A9900,0.9 mg/kg
same,ED50,S. aureus BX-1633,15 mg/kg
same,ED50,P. aeruginosa A9843,6 mg/kg
same,MIC,P. acnes A21933,1.6 µg/mL
same,MIC,E. coli A15148,0.4 µg/mL
same,MIC,B. fragilis A20928-1,3.1 µg/mL
same,MIC,H. influenzae(AMP-S),0.055 µg/mL
same,MIC,B. fragilis A22693,12.5 µg/mL
same,MIC,P. aeruginosa A15150,0.8 µg/mL
same,MIC,[2],0.066 µg/mL
same,MIC,[3],12.5 µg/mL
same,MIC,B. fragilis A21900,25 µg/mL
same,MIC,K. pneumoniae A 9867,6.3 µg/mL
same,MIC,[4],2.7 µg/mL
same,MIC,P. morganii A9553,3.1 µg/mL
